ChEMBL document CHEMBL1909046, “DrugMatrix in vitro pharmacology data”

What was measured:
[1] = target: Insulin receptor (Rattus norvegicus, UniProt P15127); format: cell membranes, Wistar, Liver, Membrane; also: in other assays of this panel Not Active means under 50% inhibition at 10 µM
[2] = target: Protein kinase C alpha type (Homo sapiens, UniProt P17252); format: cell-based; conditions: sf9;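 also: inhibition of PKCalpha kinase activity measured in an enzyme assay with histone as the phosphorylation substrate; in other assays of this panel Not Active means under 50% inhibition at 10 µM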
[3] = target: T1, 3-hydroxy-3-methylglutaryl-coenzyme A reductase (Homo sapiens, UniProt P04035); parameters: species or system Escherichia coli;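 also: enzyme inhibition assay of HMG-CoA reductase using radiolabeled [14C]HMG-CoA as substrate; in other assays of this panel Not Active means under 50% inhibition at 10 µM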
T1 sequence (P04035 whole entry): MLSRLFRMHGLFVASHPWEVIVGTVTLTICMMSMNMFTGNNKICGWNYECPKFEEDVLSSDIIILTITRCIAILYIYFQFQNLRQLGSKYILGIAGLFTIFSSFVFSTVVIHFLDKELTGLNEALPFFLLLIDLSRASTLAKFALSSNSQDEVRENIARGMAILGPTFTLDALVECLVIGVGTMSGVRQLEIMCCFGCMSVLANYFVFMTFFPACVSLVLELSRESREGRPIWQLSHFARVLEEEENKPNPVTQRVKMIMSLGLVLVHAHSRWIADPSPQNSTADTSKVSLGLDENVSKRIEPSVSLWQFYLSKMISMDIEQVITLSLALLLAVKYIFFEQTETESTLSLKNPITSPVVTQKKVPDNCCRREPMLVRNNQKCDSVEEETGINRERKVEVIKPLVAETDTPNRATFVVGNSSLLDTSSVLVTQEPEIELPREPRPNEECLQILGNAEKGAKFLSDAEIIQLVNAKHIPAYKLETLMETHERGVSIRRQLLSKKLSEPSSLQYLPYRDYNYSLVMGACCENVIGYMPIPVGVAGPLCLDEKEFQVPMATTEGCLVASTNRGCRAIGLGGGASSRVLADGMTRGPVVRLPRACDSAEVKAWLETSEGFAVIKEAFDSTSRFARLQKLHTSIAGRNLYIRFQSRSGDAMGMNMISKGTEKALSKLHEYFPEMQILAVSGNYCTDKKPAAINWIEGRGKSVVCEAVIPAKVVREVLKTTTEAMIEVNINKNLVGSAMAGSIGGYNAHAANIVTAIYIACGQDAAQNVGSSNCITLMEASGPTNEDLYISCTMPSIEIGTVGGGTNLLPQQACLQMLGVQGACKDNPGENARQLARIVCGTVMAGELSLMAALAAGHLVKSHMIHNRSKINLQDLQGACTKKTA

[4] = target: T2, C-X-C chemokine receptor type 2 (Homo sapiens, UniProt P25025); format: cell membranes, CHO-K1, Membrane; conditions: cho-k1; also: in other assays of this panel Not Active means under 50% inhibition at 10 µM
T2 sequence (P25025 whole entry): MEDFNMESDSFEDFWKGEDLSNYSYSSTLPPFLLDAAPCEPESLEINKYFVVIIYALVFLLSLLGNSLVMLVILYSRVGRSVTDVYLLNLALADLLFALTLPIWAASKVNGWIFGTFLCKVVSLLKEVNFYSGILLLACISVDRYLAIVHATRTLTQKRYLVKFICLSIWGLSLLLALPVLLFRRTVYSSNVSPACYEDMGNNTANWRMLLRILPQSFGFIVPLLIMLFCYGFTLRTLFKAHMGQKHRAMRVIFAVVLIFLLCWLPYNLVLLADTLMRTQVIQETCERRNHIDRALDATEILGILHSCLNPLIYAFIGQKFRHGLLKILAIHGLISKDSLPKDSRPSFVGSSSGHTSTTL

[5] = target: Protein phosphatase 3 catalytic subunit alpha (Homo sapiens, UniProt Q08209); parameters: species or system Escherichia coli
[6] = target: Cytochrome P450 3A4 (Homo sapiens, UniProt P08684); conditions: bti-tn-5b1-4; also: in other assays of this panel Not Active means under 50% inhibition at 10 µM
Cytochrome P450 3A4, sequence (P08684 whole entry): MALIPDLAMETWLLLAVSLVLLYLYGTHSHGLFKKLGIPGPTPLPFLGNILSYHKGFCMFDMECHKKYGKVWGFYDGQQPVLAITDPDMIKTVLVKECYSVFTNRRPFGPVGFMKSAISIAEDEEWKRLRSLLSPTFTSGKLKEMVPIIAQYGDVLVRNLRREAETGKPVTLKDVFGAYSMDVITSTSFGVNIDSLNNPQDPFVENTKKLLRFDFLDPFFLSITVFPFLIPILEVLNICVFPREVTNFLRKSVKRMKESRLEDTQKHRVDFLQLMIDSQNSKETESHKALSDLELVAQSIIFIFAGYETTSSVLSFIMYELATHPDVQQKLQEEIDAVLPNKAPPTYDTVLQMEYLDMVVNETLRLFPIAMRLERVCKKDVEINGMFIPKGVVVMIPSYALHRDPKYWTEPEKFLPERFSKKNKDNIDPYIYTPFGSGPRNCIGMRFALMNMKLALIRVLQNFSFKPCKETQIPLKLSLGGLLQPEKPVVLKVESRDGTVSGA

[7] = target: Beta-2 adrenergic receptor (Homo sapiens, UniProt P07550); assay: DRUGMATRIX: Adrenergic beta2 radioligand binding (ligand: [3H] CGP-12177); format: cell membranes, CHO, Membrane; conditions: cho; Not Active = under 50% inhibition at 10 µM
Beta-2 adrenergic receptor, sequence (P07550 whole entry): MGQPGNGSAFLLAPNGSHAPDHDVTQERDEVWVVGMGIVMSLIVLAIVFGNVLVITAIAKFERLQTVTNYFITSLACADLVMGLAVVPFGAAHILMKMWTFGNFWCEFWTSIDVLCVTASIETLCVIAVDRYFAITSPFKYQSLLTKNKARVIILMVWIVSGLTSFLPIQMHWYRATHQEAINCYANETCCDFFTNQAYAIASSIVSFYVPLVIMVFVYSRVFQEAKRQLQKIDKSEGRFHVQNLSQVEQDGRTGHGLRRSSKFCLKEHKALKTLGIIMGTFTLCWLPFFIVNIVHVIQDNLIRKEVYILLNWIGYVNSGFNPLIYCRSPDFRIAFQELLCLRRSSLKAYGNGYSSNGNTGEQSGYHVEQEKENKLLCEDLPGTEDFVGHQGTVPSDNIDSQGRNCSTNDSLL

[8] = target: Voltage-gated inwardly rectifying potassium channel KCNH2 (Homo sapiens, UniProt Q12809); conditions: hek293; also: in other assays of this panel Not Active means under 50% inhibition at 10 µM
Voltage-gated inwardly rectifying potassium channel KCNH2, sequence (Q12809 whole entry): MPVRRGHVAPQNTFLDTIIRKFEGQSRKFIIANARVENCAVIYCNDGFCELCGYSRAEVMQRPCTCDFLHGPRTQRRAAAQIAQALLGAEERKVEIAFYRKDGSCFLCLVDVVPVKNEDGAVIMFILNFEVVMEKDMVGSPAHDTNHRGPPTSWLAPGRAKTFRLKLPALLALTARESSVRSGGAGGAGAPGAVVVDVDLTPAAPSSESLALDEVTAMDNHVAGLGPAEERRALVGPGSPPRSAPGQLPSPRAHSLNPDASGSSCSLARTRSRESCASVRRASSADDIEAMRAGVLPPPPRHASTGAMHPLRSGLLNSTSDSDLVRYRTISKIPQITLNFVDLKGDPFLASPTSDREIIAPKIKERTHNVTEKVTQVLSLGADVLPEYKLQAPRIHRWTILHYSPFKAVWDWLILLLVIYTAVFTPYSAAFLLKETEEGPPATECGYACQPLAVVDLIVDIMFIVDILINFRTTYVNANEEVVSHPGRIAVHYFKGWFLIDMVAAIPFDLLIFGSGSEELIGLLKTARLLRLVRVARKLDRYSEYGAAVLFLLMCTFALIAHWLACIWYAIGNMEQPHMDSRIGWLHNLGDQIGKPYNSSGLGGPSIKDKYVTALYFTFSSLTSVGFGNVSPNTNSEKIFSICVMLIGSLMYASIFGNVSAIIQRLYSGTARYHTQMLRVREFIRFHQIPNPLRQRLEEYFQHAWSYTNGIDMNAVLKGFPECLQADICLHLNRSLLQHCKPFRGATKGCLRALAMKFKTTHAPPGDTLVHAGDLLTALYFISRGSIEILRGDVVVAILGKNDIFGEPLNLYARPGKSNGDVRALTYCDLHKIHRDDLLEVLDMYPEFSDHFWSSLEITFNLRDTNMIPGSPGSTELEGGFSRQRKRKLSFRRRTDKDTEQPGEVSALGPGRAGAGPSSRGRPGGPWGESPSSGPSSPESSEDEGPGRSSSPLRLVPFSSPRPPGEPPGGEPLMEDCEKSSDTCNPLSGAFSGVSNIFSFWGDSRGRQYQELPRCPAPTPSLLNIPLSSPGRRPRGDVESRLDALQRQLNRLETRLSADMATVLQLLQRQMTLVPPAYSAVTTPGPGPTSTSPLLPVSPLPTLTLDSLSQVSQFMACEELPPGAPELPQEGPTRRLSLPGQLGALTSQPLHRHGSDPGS

[9] = DRUGMATRIX: ATPase, Na+/K+ enzyme inhibition (substrate: ATP); format: tissue-based, Sus scrofa, Heart; conditions: Not Active = under 50% inhibition at 10 µM

Insulin receptor, sequence (P15127 27-759 limits assumed): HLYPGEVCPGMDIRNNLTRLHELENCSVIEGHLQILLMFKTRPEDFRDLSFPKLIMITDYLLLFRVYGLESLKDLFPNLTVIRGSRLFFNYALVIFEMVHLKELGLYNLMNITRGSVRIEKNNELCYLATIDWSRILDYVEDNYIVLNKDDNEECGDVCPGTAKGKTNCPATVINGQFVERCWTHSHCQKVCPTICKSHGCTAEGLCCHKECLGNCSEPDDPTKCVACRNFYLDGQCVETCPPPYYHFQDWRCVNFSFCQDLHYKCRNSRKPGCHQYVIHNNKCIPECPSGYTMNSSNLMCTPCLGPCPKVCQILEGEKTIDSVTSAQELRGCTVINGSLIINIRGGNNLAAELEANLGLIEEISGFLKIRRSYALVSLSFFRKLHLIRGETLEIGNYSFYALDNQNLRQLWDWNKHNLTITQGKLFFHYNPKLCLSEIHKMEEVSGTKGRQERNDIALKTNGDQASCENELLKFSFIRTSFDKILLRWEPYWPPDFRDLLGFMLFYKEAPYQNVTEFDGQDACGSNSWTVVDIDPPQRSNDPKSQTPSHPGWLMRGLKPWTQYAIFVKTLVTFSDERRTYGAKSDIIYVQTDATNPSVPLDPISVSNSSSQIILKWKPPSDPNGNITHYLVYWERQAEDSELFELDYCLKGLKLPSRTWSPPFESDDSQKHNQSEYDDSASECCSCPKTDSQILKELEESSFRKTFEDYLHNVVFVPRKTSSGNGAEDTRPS
Insulin receptor, sequence (P15127 764-1383 limits assumed): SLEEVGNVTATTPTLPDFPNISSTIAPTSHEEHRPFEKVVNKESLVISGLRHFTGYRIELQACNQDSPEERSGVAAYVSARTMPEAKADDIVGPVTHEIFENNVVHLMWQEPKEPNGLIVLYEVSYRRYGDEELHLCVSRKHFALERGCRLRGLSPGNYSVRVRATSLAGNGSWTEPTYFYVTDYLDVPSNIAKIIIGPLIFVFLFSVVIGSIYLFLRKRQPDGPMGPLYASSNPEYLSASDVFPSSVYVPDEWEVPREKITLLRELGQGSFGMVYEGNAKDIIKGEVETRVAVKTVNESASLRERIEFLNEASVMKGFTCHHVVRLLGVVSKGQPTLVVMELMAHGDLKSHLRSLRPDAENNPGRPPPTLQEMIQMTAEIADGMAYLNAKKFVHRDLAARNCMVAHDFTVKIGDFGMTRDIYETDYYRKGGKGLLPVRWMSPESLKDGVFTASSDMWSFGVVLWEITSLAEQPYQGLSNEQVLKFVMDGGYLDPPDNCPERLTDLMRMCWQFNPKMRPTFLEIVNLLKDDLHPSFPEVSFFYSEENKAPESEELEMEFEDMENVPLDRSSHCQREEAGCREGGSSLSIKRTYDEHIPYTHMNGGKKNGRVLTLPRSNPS

c1ccc2c(c1)Nc1ccccc1S2 [PHENOTHIAZINE]
Not Active: IC50 [1] | IC50 [2] | IC50 [3] | IC50 [4] | IC50 [5] | IC50 [6] | Ki [6] | IC50 [7] | IC50 [8] | Ki [8] | IC50 [9] | Ki [9]

Cl.NC[C@H]1CC[C@H](C(=O)Oc2ccc(CCC(=O)O)cc2)CC1 [CETRAXATE HYDROCHLORIDE]
Not Active: IC50 [1] | IC50 [2] | IC50 [3] | IC50 [4] | IC50 [5] | IC50 [6] | Ki [6] | IC50 [7] | IC50 [8] | Ki [8] | IC50 [9] | Ki [9]

CN(CCOc1ccc(C[C@H](Nc2ccccc2C(=O)c2ccccc2)C(=O)O)cc1)c1ccccn1
Not Active: IC50 [1] | IC50 [2] | IC50 [3] | IC50 [4] | IC50 [5] | IC50 [6] | Ki [6] | IC50 [7] | IC50 [8] | Ki [8] | IC50 [9] | Ki [9]

Nc1nc(F)nc2c1ncn2[C@@H]1O[C@H](CO)[C@@H](O)[C@@H]1O [FLUDARABINE]
Not Active: IC50 [1] | IC50 [2] | IC50 [3] | IC50 [4] | IC50 [5] | IC50 [6] | Ki [6] | IC50 [7] | IC50 [8] | Ki [8] | IC50 [9] | Ki [9]

OC[C@H]1OC2C3[C@@H](CO)OC(O[C@H]4[C@H](O)[C@@H](O)[C@@H](O[C@H]5[C@H](O)[C@@H](O)[C@@H](O[C@H]6[C@H](O)[C@@H](O)[C@@H](O[C@H]7[C@H](O)[C@@H](O)[C@@H](O[C@H]8[C@H](O)[C@@H](O)[C@@H](O[C@H]9[C@H](O)[C@@H](O)C(OC1[C@H](O)[C@H]2O)O[C@@H]9CO)O[C@@H]8CO)O[C@@H]7CO)O[C@@H]6CO)O[C@@H]5CO)O[C@@H]4CO)[C@H](O)[C@H]3O
Not Active: IC50 [1] | IC50 [2] | IC50 [3] | IC50 [4] | IC50 [5] | IC50 [6] | Ki [6] | IC50 [7] | IC50 [8] | Ki [8] | IC50 [9] | Ki [9]

C=CCO [ALLYL ALCOHOL]
Not Active: IC50 [1] | IC50 [2] | IC50 [3] | IC50 [4] | IC50 [5] | IC50 [6] | Ki [6] | IC50 [7] | IC50 [8] | Ki [8] | IC50 [9] | Ki [9]

C[C@]12CC[C@@H](O)C[C@@H]1CC[C@@H]1[C@@H]2CC[C@]2(C)C(=O)CC[C@@H]12 [ANDROSTERONE]
Not Active: IC50 [1] | IC50 [2] | IC50 [3] | IC50 [4] | IC50 [5] | IC50 [6] | Ki [6] | IC50 [7] | IC50 [8] | Ki [8] | IC50 [9] | Ki [9]

COC(=O)Nc1nc2ccc(Sc3ccccc3)cc2[nH]1 [FENBENDAZOLE]
Not Active: IC50 [1] | IC50 [2] | IC50 [3] | IC50 [4] | IC50 [5] | IC50 [6] | Ki [6] | IC50 [7] | IC50 [8] | Ki [8] | IC50 [9] | Ki [9]

O=C(Nc1ccc(Cl)c(Cl)c1)c1cc(Cl)cc(Cl)c1O [3,3',4',5-TETRACHLOROSALICYLANILIDE]
Not Active: IC50 [1] | IC50 [2] | IC50 [3] | IC50 [4] | IC50 [5] | IC50 [6] | Ki [6] | IC50 [7] | IC50 [8] | Ki [8] | IC50 [9] | Ki [9]

CC1(COc2ccc(CC3SC(=O)NC3=O)cc2)CCCCC1 (stereo unspecified) [CIGLITAZONE]
Not Active: IC50 [1] | IC50 [2] | IC50 [3] | IC50 [4] | IC50 [5] | IC50 [6] | Ki [6] | IC50 [7] | IC50 [8] | Ki [8] | IC50 [9] | Ki [9]

COC(=O)C[C@](O)(CCC(C)(C)O)C(=O)O[C@@H]1C(OC)=C[C@]23CCCN2CCc2cc4c(cc2[C@H]13)OCO4 [HARRINGTONINE]
Not Active: IC50 [1] | IC50 [2] | IC50 [3] | IC50 [4] | IC50 [5] | IC50 [6] | Ki [6] | IC50 [7] | IC50 [8] | Ki [8] | IC50 [9] | Ki [9]

CCCCCCNC(=O)n1cc(F)c(=O)[nH]c1=O [CARMOFUR]
Not Active: IC50 [1] | IC50 [2] | IC50 [3] | IC50 [4] | IC50 [5] | IC50 [6] | Ki [6] | IC50 [7] | IC50 [8] | Ki [8] | IC50 [9] | Ki [9]

O=c1[nH]cnc2c1ncn2[C@H]1CC[C@@H](CO)O1 [DIDANOSINE]
Not Active: IC50 [1] | IC50 [2] | IC50 [3] | IC50 [4] | IC50 [5] | IC50 [6] | Ki [6] | IC50 [7] | IC50 [8] | Ki [8] | IC50 [9] | Ki [9]

O=C(O)CO [GLYCOLIC ACID]
Not Active: IC50 [1] | IC50 [2] | IC50 [3] | IC50 [4] | IC50 [5] | IC50 [6] | Ki [6] | IC50 [7] | IC50 [8] | Ki [8] | IC50 [9] | Ki [9]

CC(C)Cc1ccc([C@H](C)C(=O)O)cc1 [DEXIBUPROFEN]
Not Active: IC50 [1] | IC50 [2] | IC50 [3] | IC50 [4] | IC50 [5] | IC50 [6] | Ki [6] | IC50 [7] | IC50 [8] | Ki [8] | IC50 [9] | Ki [9]

O=C1c2ccccc2C(=O)C1c1ccccc1 [PHENINDIONE]
Not Active: IC50 [1] | IC50 [2] | IC50 [3] | IC50 [4] | IC50 [5] | IC50 [6] | Ki [6] | IC50 [7] | IC50 [8] | Ki [8] | IC50 [9] | Ki [9]

NC(=O)NC(=O)Cc1ccccc1 [PHENACEMIDE]
Not Active: IC50 [1] | IC50 [2] | IC50 [3] | IC50 [4] | IC50 [5] | IC50 [6] | Ki [6] | IC50 [7] | IC50 [8] | Ki [8] | IC50 [9] | Ki [9]

O=C(NCCN1CCOCC1)c1ccc(Cl)cc1 [MOCLOBEMIDE]
Not Active: IC50 [1] | IC50 [2] | IC50 [3] | IC50 [4] | IC50 [5] | IC50 [6] | Ki [6] | IC50 [7] | IC50 [8] | Ki [8] | IC50 [9] | Ki [9]
